Measurements published in PubChem BioAssay (NCI).
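Cultured in 96-well plates, cells were exposed to test compound for 48 hours across five concentrations. GI50 = concentration required for 50% inhibition of growth. At the TGI there is no net growth.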

Columns and labels:
Assay in all cases: NCI-60 cell line screen, 48 h
PC-3 prostate = test system: PC-3 prostate
BT-549 breast = test system: BT-549 breast
HCT-116 colon = test system: HCT-116 colon
OVCAR-8 ovarian = test system: OVCAR-8 ovarian
DU-145 prostate = test system: DU-145 prostate
UACC-62 melanoma = test system: UACC-62 melanoma
SK-MEL-2 melanoma = test system: SK-MEL-2 melanoma
LOX IMVI melanoma = test system: LOX IMVI melanoma
786-0 renal = test system: 786-0 renal
MCF7 breast = test system: MCF7 breast

Structure (SMILES)	GI50 (PC-3 prostate) [nM]	TGI (PC-3 prostate) [µM]	GI50 (BT-549 breast) [nM]	TGI (BT-549 breast) [µM]	GI50 (HCT-116 colon) [nM]	TGI (HCT-116 colon) [µM]	GI50 (OVCAR-8 ovarian) [µM]	TGI (OVCAR-8 ovarian) [µM]	GI50 (DU-145 prostate) [µM]	TGI (DU-145 prostate) [µM]	GI50 (UACC-62 melanoma) [nM]	TGI (UACC-62 melanoma) [µM]	GI50 (SK-MEL-2 melanoma) [nM]	TGI (SK-MEL-2 melanoma) [µM]	GI50 (LOX IMVI melanoma) [nM]	TGI (LOX IMVI melanoma) [µM]	GI50 (786-0 renal) [nM]	TGI (786-0 renal) [µM]	GI50 (MCF7 breast) [nM]	TGI (MCF7 breast) [µM]
Nc1ncnc2c1c(-c1cccc(OCc3ccccc3)c1)cn2C1CC(CN2CCCC2)C1 (centres undefined)	2500	10.4	2020	4.99	1380	5.34	4.74	18	4	16.9	1840	3.78	1660	3.35	1520	3	1720	3.34	141	2
CCOC(=O)C1=C(N)Oc2c(sc3c(C)cccc23)C1c1ccc(Cl)cc1 (centres undefined)	2530	13.5	3300	15.8	2830	12.1	4.24	20.7	3.89	14.1	1080	13.3	5830	22.4	3030	13.7	4050	16.8	655	10.9
CCCCCCCCCCCC1=NC(C)(C)CN1CCO	3290	17.2	13600	34.3	1940	3.76	10.7	29.9	10.2	21.9	1970	4.41	8150	22.4	1970	4.65	6090	19	2410	6.09
C=C1C(=O)O[C@H]2[C@H]1CC/C(C=Nc1ccc(C(F)(F)F)cc1N)=C\CC[C@@]1(C)O[C@@H]21	9080	23.4	7040	20.2	2380	11	4.29	15.9	3.21	13.1	2910	15.6	11900	26.5	4120	17.4	5860	18.5	3060	16
CCOC(=O)c1c[nH]c2c(OCc3ccccc3)c3ccccc3c(O)c2c1=O	2970	> 68	12700	37.8	3740	> 51.8	5.6	41.3	12.1	> 74.2	3100	15.8	42500	> 100	6830	33	18600	57.4	9550	> 67.4
O=C(CCCCCCC(=O)N/N=C/c1ccc(N(c2ccccc2)c2ccccc2)cc1)NO	2390	10.7	2380	11.5	349	1.97	3.02	20.8	2.43	8.13	445	1.98	2710	7.81	432	1.61	1580	3.7	601	11.3
C(=N/Nc1ncnc2nc[nH]c12)/c1ccccn1	786	> 100	1860	> 100	460	> 100	0.393	> 100	0.596	> 49.3	514	3.24	1340	> 100	525	> 100	1650	5.43	444	> 100
CCCN(CCC)c1ccc(C=O)cc1	38100	> 100	35400	> 100	39700	> 100	61.9	> 100	46.7	> 100	42800	> 100	98200	> 100	59600	> 100	81000	> 100	36000	> 100
COc1c(OC(C)=O)c(OC(C)=O)cc2c1-c1ccc(OC)c(=O)cc1C(NC(C)=O)CC2 (centres undefined)		> 100		> 100		0.942		> 70.1		> 100		> 100		9.38		> 100		> 100		> 100
O=C(O)CN(CC(=O)O)Cc1cc2c(cc1O)Oc1cc(O)c(CN(CC(=O)O)CC(=O)O)cc1C21OC(=O)c2ccccc21		> 100		> 100		> 100		> 100		> 100		> 100		> 100		> 100		> 100		> 100
CC(C)(C)C(=O)OCOP(=O)(OCOC(=O)C(C)(C)C)C1CCCN(OC(=O)c2ccccc2)C1=O (centres undefined)	4380	> 100	2640	17.9	558	6.46	0.543	6.95	2.62	> 100	1090	2.99	1990	11.4	2530	20.9	610	26.4	528	10.1
Cc1ccc(Cl)cc1Nc1nc(C(F)(F)F)ccc1C(=O)N/N=C/c1c(Cl)cccc1Cl	554	> 34.3	1620	7.09	355	1.58	0.85	> 50.3	1.21	> 100	925	4.02	1940	4.86	648	5.15	588	1.38	1740	> 38.1
COc1ccc2nc3cccc([N+](=O)[O-])c3c(NCCN(CCO)CCO)c2c1		0.219	41.5	0.14	15.4	0.607	0.014	0.138	0.014	0.717	31.1	0.109	11.7	0.0224	37.9	0.18	26.8	0.156	13.8	0.548
COc1ccc(Nc2c3c4c(cccc4[nH]c2=O)C(=O)c2ccccc2-3)cc1	47.3	> 100	26.8	0.0708	< 10	0.104	0.0367	> 100	< 0.0181	0.0467	31	> 100	48	> 100	23.9	> 100	33.4	19.6	< 18.2	21.2
